The source of these data is US20240173419A1, “CDK2 DEGRADERS AND USES THEREOF” (Kymera Therapeutics, Inc., priority 2022, published 2024).

Where only a bound is given, the exact number is not on record here.

The test addresses T1, CDK2 (Homo sapiens, UniProt P24941).
T1 construct: endogenous in cells; host or cells: MKN1 cells
Briefly: CDK2 degradation in MKN1 cells (AlphaLISA). The test is classed as cell-based. The note with it: 14 h incubation; for DC50: read-out: CDK2 degradation 14 h: Mean external-Abs DC50. A digest of the protocol: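 DC50 from four-parameter logistic fit of AlphaLISA CDK2 signal, corrected for no-cell wells. Lysates came from MKN1 cells, 2e4 per well, exposed 14 h at 37° C to compound at 0.001 nM-10 μM (1:5 series, 11 doses) in 0.1% DMSO.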
On the technique in general: Bead proximity is the source of the signal in Alpha formats.

One may read the DC50 as the concentration giving 50% degradation. Consider `Cc1cc(S(=O)(=O)NC2CC3(C2)CN(CC2CN(c4ccc(C5CCC(=O)NC5=O)c(Cl)c4)C2)C3)ccc1Nc1ncc(C(F)(F)F)c(N2CCCC(C)(O)C2)n1` (stereo not drawn) [I-928], for which the “CDK2 degradation 14 h: Average Dmax %” value is reported as “A (A (>75% o))” and the DC50 was below 100 nM.

`Cc1cc(S(=O)(=O)NC2CCC(CN3CCN(c4cccc(C5CCC(=O)NC5=O)c4)CC3)CC2)ccc1Nc1ncc(C(F)(F)F)c(N2CCCC(C)(O)C2)n1` (stereo not drawn) [I-929]: the “CDK2 degradation 14 h: Average Dmax %” value was “C (C (>25% -50%))” and the DC50 was above 1000 nM.

In the case of `Cc1cc(S(=O)(=O)NC2CCC(N3CCN(c4ccc(C5CCC(=O)NC5=O)c(Cl)c4)CC3)CC2)ccc1Nc1ncc(C(F)(F)F)c(N2CCCC(C)(O)C2)n1` (stereo not drawn) [I-930], the “CDK2 degradation 14 h: Average Dmax %” value was “A (A (>75% o))” and the DC50 is below 100 nM.

With `Cc1cc(S(=O)(=O)NC2CCC(CN3CCN(c4c(F)cc(C5CCC(=O)NC5=O)cc4F)CC3)CC2)ccc1Nc1ncc(C(F)(F)F)c(N2CCCC(C)(O)C2)n1` (stereo not drawn) [I-935], the “CDK2 degradation 14 h: Average Dmax %” value is “A (A (>75% o))” and the DC50 is below 100 nM.

Consider `Cc1cc(S(=O)(=O)NC2CCC(CN3CCN(c4cccc(C5CCC(=O)NC5=O)c4)CC3)CC2)ccc1Nc1ncc2c(n1)N(C1CCCC(O)C1)C(=O)C21CC1` (stereo not drawn) [I-938], for which the “CDK2 degradation 14 h: Average Dmax %” value is listed as “C (C (>25% -50%))” and the DC50 was above 1000 nM.

For the molecule `Cc1cc(S(=O)(=O)NC2CCC(CCN3CCN(c4ccc(C5CCC(=O)NC5=O)cc4F)CC3)CC2)ccc1Nc1ncc2c(n1)N(C1CCCC(O)C1)C(=O)C21CC1` (stereo not drawn) [I-939], the “CDK2 degradation 14 h: Average Dmax %” value was “B (B (>50% -75%))” and the DC50 is below 100 nM.

Take `Cc1cc(S(=O)(=O)NC2CCC(CN3CCN(c4cc(C)c(C5CCC(=O)NC5=O)cc4F)CC3)CC2)ccc1Nc1ncc(C(F)(F)F)c(N2CCCC(C)(O)C2)n1` (stereo not drawn) [I-940]: the “CDK2 degradation 14 h: Average Dmax %” value is recorded as “A (A (>75% o))” and the DC50 was below 100 nM.

In the case of `Cc1cc(S(=O)(=O)NC2CCC(CN3CCN(c4c(F)cc(C5CCC(=O)NC5=O)cc4Cl)CC3)CC2)ccc1Nc1ncc(C(F)(F)F)c(N2CCCC(C)(O)C2)n1` (stereo not drawn) [I-941], the “CDK2 degradation 14 h: Average Dmax %” value is given as “A (A (>75% o))” and the DC50 is below 100 nM.

For the molecule `Cc1cc(S(=O)(=O)NC2CCC(OC3CCN(c4ccc(C5CCC(=O)NC5=O)cc4F)CC3)CC2)ccc1Nc1ncc(C(F)(F)F)c(N2CCCC(C)(O)C2)n1` (stereo not drawn) [I-942], the “CDK2 degradation 14 h: Average Dmax %” value is given as “A (A (>75% o))” and the half-maximal degradation concentration (DC50) is below 100 nM.

Take `CC1(O)CCCN(c2nc(Nc3ccc(S(=O)(=O)NC4CCC(CN5CCN(c6ccc(C7CCC(=O)NC7=O)c(F)c6)CC5)CC4)cc3)ncc2C(F)(F)F)C1` (stereo not drawn) [I-943]: the “CDK2 degradation 14 h: Average Dmax %” value is given as “A (A (>75% o))” and the DC50 is below 100 nM.

For the molecule `CC1(O)CCCN(c2nc(Nc3ccc(S(=O)(=O)NC4CCC(CN5CCN(c6ccc(C7CCC(=O)NC7=O)c(F)c6)CC5)CC4)cc3C(F)F)ncc2C(F)(F)F)C1` (stereo not drawn) [I-944], the “CDK2 degradation 14 h: Average Dmax %” value is “A (A (>75% o))” and the DC50 was below 100 nM.

Take `Cc1cc(S(=O)(=O)NC2CCC(CN3CCN(c4ccc5c(c4)n(C4CC4)c(=O)n5C4CCC(=O)NC4=O)CC3)CC2)ccc1Nc1ncc2c(n1)N(C1CCCC(O)C1)C(=O)C21CC1` (stereo not drawn) [I-947]: the “CDK2 degradation 14 h: Average Dmax %” value was “A (A (>75% o))” and the DC50 is below 100 nM.

For `Cc1cc(S(=O)(=O)NC2CCN(CC3CCN(c4c(F)ccc5c4n(C)c(=O)n5C4CCC(=O)NC4=O)CC3)CC2F)ccc1Nc1ncc2c(n1)N(C1CCCC(O)C1)C(=O)C21CC1` (stereo not drawn) [I-949], the “CDK2 degradation 14 h: Average Dmax %” value is given as “A (A (>75% o))” and the DC50 was below 100 nM.

Take `O=C1CCC(c2ccc(N3CCC(CN4CCC(NS(=O)(=O)c5ccc(Nc6ncc7c(n6)N(C6CCCC(O)C6)C(=O)C76CC6)c(F)c5)C(F)C4)CC3)cc2F)C(=O)N1` (stereo not drawn) [I-950]: the “CDK2 degradation 14 h: Average Dmax %” value was “A (A (>75% o))” and the DC50 was below 100 nM.

For `Cc1cc(S(=O)(=O)NC2CCC(CN3CCN(c4ccc(C5CCC(=O)NC5=O)cc4F)CC3C)CC2)ccc1Nc1ncc2c(n1)N(C1CCCC(O)C1)C(=O)C21CC1` (stereo not drawn) [I-966], the “CDK2 degradation 14 h: Average Dmax %” value is on record as “A (A (>75% o))” and the DC50 is below 100 nM.

`Cn1nc(N2CCC(=O)NC2=O)c2ccc(C3CCN(Cc4cccc(S(=O)(=O)N5CCC(Nc6ncc7ccc(=O)n(C8CCCC8)c7n6)CC5)c4)CC3)cc21` [I-968]: the “CDK2 degradation 14 h: Average Dmax %” value was “A (A (>75% o))” and the DC50 is below 100 nM.

As to `Cc1cc(S(=O)(=O)N2CCC(CN(C)C3CCN(c4cccc5c4n(C)c(=O)n5C4CCC(=O)NC4=O)CC3)CC2)ccc1Nc1nc(OC2CCCCC2)c2nc[nH]c2n1` (stereo not drawn) [I-970], the “CDK2 degradation 14 h: Average Dmax %” value is listed as “A (A (>75% o))” and the DC50 is below 100 nM.

Regarding `Cc1cc(S(=O)(=O)NCCOCCOCCCc2ccc3c(c2)n(C)c(=O)n3C2CCC(=O)NC2=O)ccc1Nc1ncc2c(n1)N(C1CCCC1)C(=O)C21CC1` (stereo not drawn) [I-972], the “CDK2 degradation 14 h: Average Dmax %” value was “B (B (>50% -75%))” and the DC50 was below 100 nM.

With `Cc1cc(S(=O)(=O)NCCOCCOCCOCCOCCCc2ccc3c(c2)n(C)c(=O)n3C2CCC(=O)NC2=O)ccc1Nc1ncc2ccc(=O)n(C3CCCC3)c2n1` (stereo not drawn) [I-973], the “CDK2 degradation 14 h: Average Dmax %” value is “A (A (>75% o))” and the DC50 was below 100 nM.

In the case of `Cc1cc(S(=O)(=O)NCCOCCOCCOCCOCCCc2ccc3c(c2)n(C)c(=O)n3C2CCC(=O)NC2=O)ccc1Nc1ncc2c(n1)N(C1CCCC1)C(=O)C21CC1` (stereo not drawn) [I-974], the “CDK2 degradation 14 h: Average Dmax %” value is “A (A (>75% o))” and the DC50 is below 100 nM.

Consider `Cc1cc(S(=O)(=O)NCCCCCCc2cccc3c2n(C)c(=O)n3C2CCC(=O)NC2=O)ccc1Nc1ncc2cc(C(F)F)c(=O)n(C3CCCC3(C)O)c2n1` (stereo not drawn) [I-976], for which the “CDK2 degradation 14 h: Average Dmax %” value was “B (B (>50% -75%))” and the DC50 was below 100 nM.

`CC1CC(NS(=O)(=O)c2ccc(Nc3ncc(C(F)(F)F)c(N4CCCC(C)(O)C4)n3)c(F)c2)CCN1CC1CCN(c2ccc(C3CCC(=O)NC3=O)c(F)c2)CC1` (stereo not drawn) [I-1037]: the “CDK2 degradation 14 h: Average Dmax %” value is on record as “A (A (>75% o))” and the DC50 was below 100 nM.

For `Cn1c(=O)n(C2CCC(=O)NC2=O)c2ccc(N3CCC(CN4CCC(NS(=O)(=O)c5ccc(Nc6ncc(C(F)(F)F)c(N7CCCC(C)(O)C7)n6)c(F)c5)C(F)C4)CC3)cc21` (stereo not drawn) [I-1039], the “CDK2 degradation 14 h: Average Dmax %” value was “A (A (>75% o))” and the DC50 was below 100 nM.

As to `CC1(O)CCCN(c2nc(Nc3ccc(S(=O)(=O)N4CCN(CC5CCC(Oc6cccc(C7CCC(=O)NC7=O)c6)CC5)CC4)cc3C(F)F)ncc2C(F)(F)F)C1` (stereo not drawn) [I-1043], the “CDK2 degradation 14 h: Average Dmax %” value is reported as “D (D (<25%))” and the DC50 was above 1000 nM.

For `CC1(O)CCCN(c2nc(Nc3ccc(S(=O)(=O)N4CCN(CC5CCC(Oc6ccc(C7CCC(=O)NC7=O)cc6)CC5)CC4)cc3C(F)F)ncc2C(F)(F)F)C1` (stereo not drawn) [I-1044], the “CDK2 degradation 14 h: Average Dmax %” value was “D (D (<25%))” and the DC50 is above 1000 nM.

On to `CN(CC1CCC(NS(=O)(=O)c2ccc(Nc3ncc(C(F)(F)F)c(N4CCCC(C)(O)C4)n3)c(C(F)F)c2)CC1)C1CN(c2ccc(C3CCC(=O)NC3=O)c(F)c2)C1` (stereo not drawn) [I-1045], for which the “CDK2 degradation 14 h: Average Dmax %” value was “B (B (>50% -75%))” and the DC50 fell in the range of 100 to 500 nM.

Turning to `CC1CN(CC2CCN(c3ccc(C4CCC(=O)NC4=O)c(F)c3)CC2)CCC1NS(=O)(=O)c1ccc(Nc2ncc(C(F)(F)F)c(N3CCCC(C)(O)C3)n2)c(F)c1` (stereo not drawn) [I-1046], the “CDK2 degradation 14 h: Average Dmax %” value is listed as “A (A (>75% o))” and the DC50 is below 100 nM.

For the molecule `Cc1cc(S(=O)(=O)NC2CCC(CN3CCN(c4ccc(C5CCC(=O)NC5=O)c(Cl)c4)CC3)CC2)ncc1Nc1ncc(C(F)(F)F)c(N2CCCC(C)(O)C2)n1` (stereo not drawn) [I-1047], the “CDK2 degradation 14 h: Average Dmax %” value is “A (A (>75% o))” and the DC50 is below 100 nM.

Turning to `Cc1nc(S(=O)(=O)NC2CCC(CN3CCN(c4ccc(C5CCC(=O)NC5=O)c(Cl)c4)CC3)CC2)ccc1Nc1ncc(C(F)(F)F)c(N2CCCC(C)(O)C2)n1` (stereo not drawn) [I-1048], the “CDK2 degradation 14 h: Average Dmax %” value is recorded as “A (A (>75% o))” and the DC50 was below 100 nM.

As to `Cc1nc(S(=O)(=O)NC2CCC(CN3CCN(c4ccc(C5CCC(=O)NC5=O)c(F)c4)CC3)CC2)ccc1Nc1ncc(C(F)(F)F)c(N2CCCC(C)(O)C2)n1` (stereo not drawn) [I-1049], the “CDK2 degradation 14 h: Average Dmax %” value is “A (A (>75% o))” and the DC50 is below 100 nM.

Regarding `CC1(O)CCN(c2nc(Nc3ccc(S(=O)(=O)NC4CCN(CC5CCN(c6ccc(C7CCC(=O)NC7=O)cc6F)CC5)CC4F)cc3F)ncc2C(F)(F)F)CC1` (stereo not drawn) [I-1050], the “CDK2 degradation 14 h: Average Dmax %” value is “A (A (>75% o))” and the DC50 was below 100 nM.

On to `CC1(O)CCN(c2nc(Nc3ccc(S(=O)(=O)NC4CCN(CC5CCN(c6ccc(C7CCC(=O)NC7=O)c(F)c6)CC5)CC4F)cc3F)ncc2C(F)(F)F)CC1` (stereo not drawn) [I-1051], for which the “CDK2 degradation 14 h: Average Dmax %” value is recorded as “A (A (>75% o))” and the DC50 is below 100 nM.

Turning to `Cc1cc(S(=O)(=O)NC2CCN(CC3CCN(c4ccc(C5CCC(=O)NC5=O)cc4F)CC3)CC2F)ccc1Nc1ncc(C(F)(F)F)c(N2CCCC(C)(O)C2)n1` (stereo not drawn) [I-1054], the “CDK2 degradation 14 h: Average Dmax %” value is given as “A (A (>75% o))” and the DC50 was below 100 nM.

`Cc1cc(S(=O)(=O)NC2CCN(CC3CCN(c4ccc(C5CCC(=O)NC5=O)cc4F)CC3)CC2F)ccc1Nc1ncc(C(F)(F)F)c(N2CCCC(C)(O)C2)n1` (stereo not drawn) [I-1055]: the “CDK2 degradation 14 h: Average Dmax %” value is given as “A (A (>75% o))” and the DC50 is below 100 nM.

On to `CC1(O)CCCN(c2nc(Nc3ccc(S(=O)(=O)NC4CCN(CC5CCN(c6ccc(C7CCC(=O)NC7=O)c(F)c6)CC5)CC45CC5)cc3F)ncc2C(F)(F)F)C1` (stereo not drawn) [I-1056], for which the “CDK2 degradation 14 h: Average Dmax %” value was “A (A (>75% o))” and the DC50 was below 100 nM.

For the molecule `CC1(O)CCCN(c2nc(Nc3ccc(S(=O)(=O)NC4CC5CCC(C4)N5CC4CCN(c5ccc(C6CCC(=O)NC6=O)c(F)c5)CC4)cc3F)ncc2C(F)(F)F)C1` (stereo not drawn) [I-1057], the “CDK2 degradation 14 h: Average Dmax %” value is “B (B (>50% -75%))” and the half-maximal degradation concentration (DC50) was in the range of 100 to 500 nM.
